The test system of data set [1] is ECHCG: barnyardgrass (Echinochloa crus-galli). Put plainly: Post-Emergent Test I herbicidal activity. The following applies: 4 Kg ai/ha. The format is in vivo. The procedure:
(§1) Post-Emergent Test I: Seeds test species were obtained from commercial suppliers and planted into a 5″-round pot containing soil-less media mix (Metro-Mix 360®, Sun Gro Horticulture). Postemergence treatments were planted 8-12 days (d) prior to application and cultured in a greenhouse equipped with supplemental light sources to provide a 16 hour (h) photoperiod at 24-29° C. All pots were surface irrigated. Approximately 10 milligrams (mg) of each compound were dissolved in 1.3 mL acetone-DMSO (97:3, v/v) and diluted with 4.1 mL water-isopropanol-crop oil concentrate (78:20:2, v/v/v) containing 0.02% Triton X-155. Treatments were serial diluted with the above formulation solvent to provide 1.85, 0.926, 0.462 and 0.231 mg/mL of test compound delivered in 2.7 mL/pot (roughly equivalent to 4.0, 2.0, 1.0, and 0.5 kg/ha, respectively). Formulated compounds were applied using a DeVilbiss® compressed air sprayer at 2-4 pounds per square inch (psi). Following treatment, pots were returned to the greenhouse for the duration of the experiment. All pots were sub-irrigated as need to provide optimum growing conditions. All pots were fertilized one time per week by subirrigating with Peters Peat-Lite Special® fertilizer (20-10-20). Phytotoxicity ratings were obtained 10 days after treatment postemergence applications. All evaluations were made visually on a scale of 0 to 100 where 0 represents no activity and 100 represents complete plant death. Visual assessments of plant injury were made based on growth reduction, discoloration, leaf deformity and necrosis.

Data set [2] concerns IPOHE: ivyleaf morningglory (Ipomoea hederecea). In words: Post-Emergent Test I herbicidal activity. The format is in vivo. The conditions noted are these: 4 Kg ai/ha. As for the experimental part: as §1
Data set [3] relates to HELAN: sunflower (Helianthus annuus). Put plainly: Post-Emergent Test I herbicidal activity. It counts as in vivo. The following applies: 4 Kg ai/ha. The procedure: as §1
For data set [4], the system named is AVEFA: wild oats (Avena fatua). Put plainly: Post-Emergent Test I herbicidal activity. The format is in vivo. The conditions noted are these: 4 Kg ai/ha. As for the experimental part: as §1
The test system of data set [5] is SETFA: giant foxtail (Setaria faberi). Put plainly: Post-Emergent Test I herbicidal activity. It counts as in vivo. The following applies: 4 Kg ai/ha. The procedure: as §1

Broadly, the melting point is the temperature of the solid-liquid transition.

For the compound `COC(=O)c1nc(-c2ccc3nonc3c2F)cc(N)c1Cl` [Compound 6, Methyl 4-amino-3-chloro-6-(4-fluorobenzo[c][1,2,5]oxadiazol-5-yl)picolinate], the “Visual Growth Reduction (%) 10 Days After Application ECHCG” value in data set [1] was “G (0-29)”. The “Visual Growth Reduction (%) 10 Days After Application IPOHE” value in data set [2] was “G (0-29)”. For the same compound, the “Visual Growth Reduction (%) 10 Days After Application HELAN” value in data set [3] is “G (0-29)”. Also, the “Visual Growth Reduction (%) 10 Days After Application AVEFA” value in data set [4] is “G (0-29)”. Moreover, the “Visual Growth Reduction (%) 10 Days After Application SETFA” value in data set [5] is listed as “G (0-29)”.

Compound `Nc1cc(-c2cc3nonc3cc2F)nc(C(=O)O)c1Cl` [Compound 7] displayed a melting point of 177 to 178 °C.

Values taken from patent publication US9006250B2, “4-amino-6-(heterocyclic)picolinates and 6-amino-2-(heterocyclic)pyrimidine-4-carboxylates and their use as herbicides” (Dow AgroSciences, LLC, priority 2013, dated 2015).
